What was measured:
Format in all cases: ADME
[1] = (§1) The drug is tested on the gut metagenome community of T-01 with ENA study accession number: PRJEB31790 for biotransformation under anaerobic condition. The drug concentrations were measured over 7 timepoints collected between 0 and 12 hours of incubation by liquid-chromatography-coupled mass spectrometry (LC–MS); set-up: dose 5 uM, timepoint 0, 0.75, 1.5, 3, 6, 9, 12 hours; settings: 5 µM
[2] = as §1, with “P-04” for “T-01”; set-up: dose 5 uM, timepoint 0, 0.75, 1.5, 3, 6, 9, 12 hours; settings: 5 µM
[3] = as §1, with “T-05” for “T-01”, “microaerobic” for “anaerobic”; set-up: dose 5 uM, timepoint 0, 0.75, 1.5, 3, 6, 9, 12 hours; settings: 5 µM
[4] = The drug is tested on Bacteroides fragilis strain: DSM2151 for biotransformation under anaerobic condition. The drug concentrations were measured over 6 timepoints collected between 0 and 12 hours of incubation by liquid-chromatography-coupled mass spectrometry (LC–MS); set-up: dose 5 uM, timepoint 0, 1.5, 3, 6, 9, 12 hours; settings: 5 µM
[5] = The drug is tested on Gemella haemolysans strain: DSM107751 for biotransformation under microaerobic condition. The drug concentrations were measured over 6 timepoints collected between 0 and 12 hours of incubation by liquid-chromatography-coupled mass spectrometry (LC–MS); set-up: dose 5 uM, timepoint 0, 1.5, 3, 6, 9, 12 hours; settings: 5 µM
[6] = The drug is tested on Eubacterium eligens strain: DSM3376 for biotransformation under anaerobic condition. The drug concentrations were measured over 6 timepoints collected between 0 and 12 hours of incubation by liquid-chromatography-coupled mass spectrometry (LC–MS); set-up: dose 5 uM, timepoint 0, 1.5, 3, 6, 9, 12 hours; settings: lachnospira eligens, 5 µM
[7] = as §1, with “A-08” for “T-01”; set-up: dose 5 uM, timepoint 0, 0.75, 1.5, 3, 6, 9, 12 hours; settings: 5 µM
[8] = The drug is tested on Ruminococcus gnavus strain: ATCC29149 for biotransformation under anaerobic condition. The drug concentrations were measured over 6 timepoints collected between 0 and 12 hours of incubation by liquid-chromatography-coupled mass spectrometry (LC–MS); set-up: dose 5 uM, timepoint 0, 1.5, 3, 6, 9, 12 hours; settings: mediterraneibacter gnavus, 5 µM
[9] = as §1, with “A-09” for “T-01”, “microaerobic” for “anaerobic”; set-up: dose 5 uM, timepoint 0, 0.75, 1.5, 3, 6, 9, 12 hours; settings: 5 µM
[10] = The drug is tested on Lactobacillus paracasei strain: ATCC27092 for biotransformation under microaerobic condition. The drug concentrations were measured over 6 timepoints collected between 0 and 12 hours of incubation by liquid-chromatography-coupled mass spectrometry (LC–MS); set-up: dose 5 uM, timepoint 0, 1.5, 3, 6, 9, 12 hours; settings: lacticaseibacillus paracasei, 5 µM
[11] = as §1, with “T-02” for “T-01”, “microaerobic” for “anaerobic”; set-up: dose 5 uM, timepoint 0, 0.75, 1.5, 3, 6, 9, 12 hours; settings: 5 µM
[12] = as §1, with “T-05” for “T-01”; set-up: dose 5 uM, timepoint 0, 0.75, 1.5, 3, 6, 9, 12 hours; settings: 5 µM
[13] = as §1, with “A-05” for “T-01”, “microaerobic” for “anaerobic”; set-up: dose 5 uM, timepoint 0, 0.75, 1.5, 3, 6, 9, 12 hours; settings: 5 µM
[14] = The drug is tested on Streptococcus salivarius strain: DSM20560 for biotransformation under anaerobic condition. The drug concentrations were measured over 6 timepoints collected between 0 and 12 hours of incubation by liquid-chromatography-coupled mass spectrometry (LC–MS); set-up: dose 5 uM, timepoint 0, 1.5, 3, 6, 9, 12 hours; settings: 5 µM
[15] = as §1, with “P-02” for “T-01”, “microaerobic” for “anaerobic”; set-up: dose 5 uM, timepoint 0, 0.75, 1.5, 3, 6, 9, 12 hours; settings: 5 µM
[16] = as §1, with “P-01” for “T-01”, “microaerobic” for “anaerobic”; set-up: dose 5 uM, timepoint 0, 0.75, 1.5, 3, 6, 9, 12 hours; settings: 5 µM
[17] = as §1, with “microaerobic” for “anaerobic”; set-up: dose 5 uM, timepoint 0, 0.75, 1.5, 3, 6, 9, 12 hours; settings: 5 µM
[18] = The drug is tested on Streptococcus salivarius strain: DSM20560 for biotransformation under microaerobic condition. The drug concentrations were measured over 6 timepoints collected between 0 and 12 hours of incubation by liquid-chromatography-coupled mass spectrometry (LC–MS); set-up: dose 5 uM, timepoint 0, 1.5, 3, 6, 9, 12 hours; settings: 5 µM
[19] = The drug is tested on Bifidobacterium longum strain: DSM20088 for biotransformation under anaerobic condition. The drug concentrations were measured over 6 timepoints collected between 0 and 12 hours of incubation by liquid-chromatography-coupled mass spectrometry (LC–MS); set-up: dose 5 uM, timepoint 0, 1.5, 3, 6, 9, 12 hours; settings: 5 µM
[20] = The drug is tested on Actinomyces naeslundi strain: DSM43013 for biotransformation under microaerobic condition. The drug concentrations were measured over 6 timepoints collected between 0 and 12 hours of incubation by liquid-chromatography-coupled mass spectrometry (LC–MS); set-up: dose 5 uM, timepoint 0, 1.5, 3, 6, 9, 12 hours; settings: actinomyces naeslundii, 5 µM
[21] = as §1, with “A-04” for “T-01”, “microaerobic” for “anaerobic”; set-up: dose 5 uM, timepoint 0, 0.75, 1.5, 3, 6, 9, 12 hours; settings: 5 µM
[22] = as §1, with “A-06” for “T-01”; set-up: dose 5 uM, timepoint 0, 0.75, 1.5, 3, 6, 9, 12 hours; settings: 5 µM
[23] = The drug is tested on Capnocytophaga ochracea strain: DSM7271 for biotransformation under microaerobic condition. The drug concentrations were measured over 6 timepoints collected between 0 and 12 hours of incubation by liquid-chromatography-coupled mass spectrometry (LC–MS); set-up: dose 5 uM, timepoint 0, 1.5, 3, 6, 9, 12 hours; settings: 5 µM
[24] = The drug is tested on Bacteroides stercoris strain: HM 1036 for biotransformation under anaerobic condition. The drug concentrations were measured over 6 timepoints collected between 0 and 12 hours of incubation by liquid-chromatography-coupled mass spectrometry (LC–MS); set-up: dose 5 uM, timepoint 0, 1.5, 3, 6, 9, 12 hours; settings: 5 µM
[25] = as §1, with “A-07” for “T-01”, “microaerobic” for “anaerobic”; set-up: dose 5 uM, timepoint 0, 0.75, 1.5, 3, 6, 9, 12 hours; settings: 5 µM
[26] = as §1, with “T-04” for “T-01”, “microaerobic” for “anaerobic”; set-up: dose 5 uM, timepoint 0, 0.75, 1.5, 3, 6, 9, 12 hours; settings: 5 µM
[27] = The drug is tested on Eubacterium rectale strain: DSM17629 for biotransformation under anaerobic condition. The drug concentrations were measured over 6 timepoints collected between 0 and 12 hours of incubation by liquid-chromatography-coupled mass spectrometry (LC–MS); set-up: dose 5 uM, timepoint 0, 1.5, 3, 6, 9, 12 hours; settings: agathobacter rectalis, 5 µM
[28] = as §1, with “T-04” for “T-01”; set-up: dose 5 uM, timepoint 0, 0.75, 1.5, 3, 6, 9, 12 hours; settings: 5 µM
[29] = The drug is tested on Bifidobacterium adolescentis strain: DSM20083 for biotransformation under anaerobic condition. The drug concentrations were measured over 6 timepoints collected between 0 and 12 hours of incubation by liquid-chromatography-coupled mass spectrometry (LC–MS); set-up: dose 5 uM, timepoint 0, 1.5, 3, 6, 9, 12 hours; settings: 5 µM
[30] = as §1, with “P-03” for “T-01”, “microaerobic” for “anaerobic”; set-up: dose 5 uM, timepoint 0, 0.75, 1.5, 3, 6, 9, 12 hours; settings: 5 µM
[31] = The drug is tested on Prevotella copri strain: DSM18205 for biotransformation under anaerobic condition. The drug concentrations were measured over 6 timepoints collected between 0 and 12 hours of incubation by liquid-chromatography-coupled mass spectrometry (LC–MS); set-up: dose 5 uM, timepoint 0, 1.5, 3, 6, 9, 12 hours; settings: segatella copri, 5 µM

Row | Bacterial Biotransformation [1] | Bacterial Biotransformation [2] | Bacterial Biotransformation [3] | Bacterial Biotransformation [4] | Bacterial Biotransformation [6] | Bacterial Biotransformation [7] | Bacterial Biotransformation [8] | Bacterial Biotransformation [9] | Bacterial Biotransformation [10] | Bacterial Biotransformation [11] | Bacterial Biotransformation [12] | Bacterial Biotransformation [13] | Bacterial Biotransformation [14] | Bacterial Biotransformation [15] | Bacterial Biotransformation [16] | Bacterial Biotransformation [17] | Bacterial Biotransformation [18] | Bacterial Biotransformation [19] | Bacterial Biotransformation [20] | Compound | Bacterial Biotransformation [5] | other results
1 | Compound NOT metabolized | Compound NOT metabolized | Compound NOT metabolized | Compound NOT metabolized | Compound NOT metabolized | Compound metabolized | Compound NOT metabolized | Compound metabolized | Compound NOT metabolized | Compound metabolized | Compound NOT metabolized | Compound NOT metabolized | Compound NOT metabolized | Compound NOT metabolized | Compound NOT metabolized | Compound NOT metabolized | Compound NOT metabolized | Compound NOT metabolized | Compound NOT metabolized | C[C@H]1C[C@H]2[C@@H]3CCC4=CC(=O)C=C[C@]4(C)[C@@]3(F)[C@@H](O)C[C@]2(C)[C@@]1(O)C(=O)CO [BETAMETHASONE] | Compound NOT metabolized | Bacterial Biotransformation [21]: Compound metabolized; Bacterial Biotransformation [22]: Compound metabolized; Bacterial Biotransformation [23]: Compound NOT metabolized; Bacterial Biotransformation [24]: Compound NOT metabolized; Bacterial Biotransformation [25]: Compound metabolized; Bacterial Biotransformation [26]: Compound NOT metabolized; Bacterial Biotransformation [27]: Compound NOT metabolized; Bacterial Biotransformation [28]: Compound NOT metabolized; Bacterial Biotransformation [29]: Compound NOT metabolized; Bacterial Biotransformation [30]: Compound NOT metabolized; Bacterial Biotransformation [31]: Compound NOT metabolized
2 | Compound metabolized | Compound NOT metabolized | Compound NOT metabolized | Compound NOT metabolized | Compound NOT metabolized | Compound metabolized | Compound NOT metabolized | Compound metabolized | Compound NOT metabolized | Compound NOT metabolized | Compound NOT metabolized | Compound metabolized | Compound NOT metabolized | Compound NOT metabolized | Compound NOT metabolized | Compound metabolized | Compound NOT metabolized | Compound NOT metabolized | Compound NOT metabolized | CCCC1O[C@@H]2C[C@H]3[C@@H]4CCC5=CC(=O)C=C[C@]5(C)[C@H]4[C@@H](O)C[C@]3(C)[C@]2(C(=O)CO)O1 (stereo partly drawn) [BUDESONIDE] | Compound NOT metabolized | Bacterial Biotransformation [21]: Compound metabolized; Bacterial Biotransformation [22]: Compound metabolized; Bacterial Biotransformation [23]: Compound NOT metabolized; Bacterial Biotransformation [24]: Compound NOT metabolized; Bacterial Biotransformation [25]: Compound metabolized; Bacterial Biotransformation [26]: Compound metabolized; Bacterial Biotransformation [27]: Compound NOT metabolized; Bacterial Biotransformation [28]: Compound NOT metabolized; Bacterial Biotransformation [29]: Compound NOT metabolized; Bacterial Biotransformation [30]: Compound NOT metabolized; Bacterial Biotransformation [31]: Compound NOT metabolized
3 | Compound metabolized | Compound metabolized | Compound metabolized | Compound NOT metabolized | Compound NOT metabolized | Compound metabolized | Compound metabolized | Compound metabolized | Compound NOT metabolized | Compound metabolized | Compound metabolized | Compound metabolized | Compound NOT metabolized | Compound metabolized | Compound metabolized | Compound metabolized | Compound NOT metabolized | Compound NOT metabolized | Compound NOT metabolized | C[C@]12CCC(=O)C=C1CC[C@@H]1[C@@H]2C(=O)C[C@@]2(C)[C@H]1CC[C@]2(O)C(=O)CO [CORTISONE] | Compound NOT metabolized | Bacterial Biotransformation [21]: Compound metabolized; Bacterial Biotransformation [22]: Compound metabolized; Bacterial Biotransformation [23]: Compound NOT metabolized; Bacterial Biotransformation [24]: Compound NOT metabolized; Bacterial Biotransformation [25]: Compound metabolized; Bacterial Biotransformation [26]: Compound NOT metabolized; Bacterial Biotransformation [27]: Compound NOT metabolized; Bacterial Biotransformation [28]: Compound NOT metabolized; Bacterial Biotransformation [29]: Compound NOT metabolized; Bacterial Biotransformation [30]: Compound metabolized; Bacterial Biotransformation [31]: Compound NOT metabolized

— ChEMBL document CHEMBL5724806, “Unraveling interindividual differences and functional consequences of gut microbial metabolism of immunosuppressants” (2024)
